Measured values reported in patent US20190119200A1, “TERTIARY AMIDES AND METHOD OF USE” (AbbVie Inc., priority 2016, published 2019).

Key:
Assay type in all cases: cell-based
LPAR1 [1] = target: T1, LPAR1 (Homo sapiens, UniProt Q92633); experiment: LPAR1 Arrestin Assay (arrestin reporter assay); conditions: U2OS cells stably expressing the LPAR1 receptor, 200 nM 18:1 LPA (EC80); for Emax: read-out: Maximum Inhibition
T1 construct: host or cells: U2OS
Description: One day prior to the experiment, frozen U2OS cells stably expressing the LPAR1 receptor (Life Technologies, Grand Island, N.Y., #K1519A) were thawed, centrifuged at 1,000 rpm for 5 minutes to remove DMSO, and resuspended in FreeStyle™ media (Gibco, Grand Island, N.Y.). Forty microliters of cells were plated into PDL-coated 384-well plates (Greiner Bio-One, Monroe, N.C.) at 10,000 cells/well, and then the plates were incubated overnight in humidified 5% CO2 at 37° C. Test compounds were dissolved in DMSO, and 12-point, 1:3 dilution CRCs were prepared in duplicate; daughter plates were prepared by aliquoting 0.8 μL/well of test compound dilutions into 384-well plates. On the day of the assay, the daughter plates were diluted to 6× stocks using HEPES-buffered HBSS, then 10 μL of 6× test compounds were added to the cells, and the plates were incubated at 37° C. for one hour. After this 1 hour incubation, 10 μL of a 6× stock of the LPAR1 agonist, 18:1 LPA (Avanti Polar Lipids, Alabaster, Ala.), was prepared in HEPES-buffered HBSS+0.1% fatty acid-free BSA (Sigma, St. Louis, Mo.). The 6×LPA was added to all wells for a final concentration of 200 nM, which corresponds to the 18:1 LPA EC80 in this arrestin assay. The final DMSO concentration in the assay plate was 0.1%, and the final BSA concentration was 0.02%. After addition of LPA to all wells, the assay plates were incubated in humidified 5% CO2 at 37° C. for five hours. During the incubation period, 6× dye from the LiveBLAzer™-FRET B/G with CCF4-AM kit (Life Technologies, Grand Island, N.Y.) was prepared according to manufacturers' instructions. At the end of the 5 hour compound incubation, 10 μL of 6× dye was added to each well, and the assay plate was incubated for two hours in the dark at room temperature. Throughout the assay procedure, all volume additions were performed with a Biomek® NX liquid handler (Beckman Coulter, Indianapolis, Ind.). After the 2 hour dye-load, fluorescence was measured on an EnVision® Multilabel Plate Reader (Perkin Elmer, Waltham, Mass.) with an excitation filter at 409/20 nm and emission filters at 460/40 nm and 530/30 nm. Data processing was performed as recommended by the LiveBLAzer™-FRET B/G with CCF4-AM kit manual; all test compound CRCs were performed in duplicate with n≥3.

LPAR1 [2] = target: T1, LPAR1; experiment: LPAR1 FLIPR Assay; conditions: U2OS cells stably expressing LPAR1, LPA (EC80), Calcium 6 FLIPR dye; for Emax: read-out: Maximum Inhibition
Procedure, shortened: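 Calcium flux read-out (515-575 nm, FLIPR) in LPAR1-expressing U2OS cells after LPA challenge at EC80, given 3 min after compound addition; cells carried Calcium 6 dye loaded 2 h at 37° C. Eleven-point 3-fold dilutions were fitted with a four-parameter Hill equation for IC50.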

[3] = test system: LPA-induced MCP-1 in NRK-49F cells; experiment: LPA-induced MCP-1 AlphaLISA assay; conditions: Rattus norvegicus, final LPA 10 μM, 7 hours; for Emax: read-out: Maximum Inhibition
Procedure, shortened: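 NRK-49F rat fibroblasts, serum-starved overnight, pretreated with compound for 30 min at 37 °C (1% DMSO final), then stimulated with 10 μM LPA final. MCP-1 in the supernatant was measured by mouse/rat CCL2 AlphaLISA. IC50 values came from four-parameter logistic fits of the ratio data.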

T1 sequence (Q92633 whole entry): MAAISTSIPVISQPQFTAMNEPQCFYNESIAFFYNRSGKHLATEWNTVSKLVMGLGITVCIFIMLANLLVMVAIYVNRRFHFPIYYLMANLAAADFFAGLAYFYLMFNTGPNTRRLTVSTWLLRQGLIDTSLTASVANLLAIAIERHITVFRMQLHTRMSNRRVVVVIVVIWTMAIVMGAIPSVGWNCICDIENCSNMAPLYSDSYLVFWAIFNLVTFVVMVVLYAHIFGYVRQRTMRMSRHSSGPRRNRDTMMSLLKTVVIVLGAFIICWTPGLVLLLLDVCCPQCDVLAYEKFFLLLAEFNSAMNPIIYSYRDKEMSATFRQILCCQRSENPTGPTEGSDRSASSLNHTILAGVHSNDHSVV

Structure (SMILES) | IC50 (LPAR1 [1]) [nM] | Emax (LPAR1 [1]) [%] | IC50 (LPAR1 [2]) [nM] | Emax (LPAR1 [2]) [%] | IC50 [3] [nM] | Emax [3] [%]
COc1cc(OC)cc(C(=O)N(CCCCC(=O)O)CCCc2cccc(F)c2)c1 [Example 90, 5-{(3,5-dimethoxybenzoyl)[3-(3-fluorophenyl)propyl]amino}pentanoic Acid] | 675 | 108 | 37 | 88 | 2500 | 76
COc1cc(C(=O)N(CCCc2ccccc2)CCCC(O)C(=O)O)cc(OC)c1C (stereo not drawn) [Example 151, 5-[(3,5-dimethoxy-4-methylbenzoyl)(3-phenylpropyl)amino]-2-hydroxypentanoic Acid] | 665 | 114 | 37 | 79 | 1630 | 79
COc1ccc(C2(C(=O)N(CCCCC(=O)O)CCCc3ccccc3)CC2)nc1 [Example 63, 5-{[1-(5-methoxypyridin-2-yl)cyclopropane-1-carbonyl](3-phenylpropyl)amino}pentanoic Acid] | 3070 | 118 | 80 | 87 | 5530 | 51
COc1cc(C(=O)N(CCCc2ccccc2)CC(=O)NC(C)(C)C(=O)O)cc(OC)c1C [Example 45, N-(3,5-dimethoxy-4-methylbenzoyl)-N-(3-phenylpropyl)glycyl-2-methylalanine] | 494 | 108 | 51 | 91 | 5540 | 71
COc1cc(C(=O)N(CCCc2ccccc2)CCOC(=O)NS(C)(=O)=O)cc(OC)c1C [Example 184, 2-[(3,5-dimethoxy-4-methylbenzoyl)(3-phenylpropyl)amino]ethyl (methanesulfonyl)carbamate] | 1550 | 99 | 131 | 66 | 5560 | 58
COc1cc(C(=O)N(CCCCC(=O)O)CCCc2ccccc2)cc(OC)n1 [Example 48, 5-[(2,6-dimethoxypyridine-4-carbonyl)(3-phenylpropyl)amino]pentanoic Acid] | 3320 | 113 | 52 | 81 | > 4770 | 62
COc1cc(C(=O)N(CCCc2ccccc2)CCC[C@H](C)C(=O)O)cc(OC)c1C (single isomer, unassigned) [Example 78] | 11 | 103 | 33 | 100 | 78 | 95
COc1cc(C(=O)N(CCCc2ccc(F)cc2F)CCOCC(=O)O)cc(OC)c1C [Example 130, (2-{[3-(2,4-difluorophenyl)propyl](3,5-dimethoxy-4-methylbenzoyl)amino}ethoxy)acetic Acid] | 760 | 119 | 41 | 83 | 1790 | 83
COc1cc(C(=O)N(CCCc2ccc(F)cc2)CCOCC(=O)O)cc(OC)c1C [Example 139, (2-{(3,5-dimethoxy-4-methylbenzoyl)[3-(4-fluorophenyl)propyl]amino}ethoxy)acetic Acid] | 464 | 125 | 46 | 78 | 3150 | 72
COc1cc(OC)cc(C(=O)N(CCCCC(=O)O)CCCc2ccccc2F)c1 [Example 134, 5-{(3,5-dimethoxybenzoyl)[3-(2-fluorophenyl)propyl]amino}pentanoic Acid] | 2240 | 125 | 74 | 77 | > 10000 | 37

Second part, led by results:

IC50 (LPAR1 [1]) [nM] | Emax (LPAR1 [1]) [%] | IC50 (LPAR1 [2]) [nM] | Emax (LPAR1 [2]) [%] | IC50 [3] [nM] | Structure (SMILES) | Emax [3] [%]
5680 | 119 | 48 | 73 | 3940 | COc1cc(C(=O)N(CCCCC(=O)O)CCCc2ccc(C)o2)c(F)c(OC)c1F [Example 175, 5-{(2,4-difluoro-3,5-dimethoxybenzoyl)[3-(5-methylfuran-2-yl)propyl]amino}pentanoic Acid] | 67
636 | 112 | 32 | 93 | 2390 | COc1cc(OC)c(F)c(C(=O)N(CCCCC(=O)O)CCCc2ccccc2)c1 [Example 58, 5-[(2-fluoro-3,5-dimethoxybenzoyl)(3-phenylpropyl)amino]pentanoic Acid] | 78
1560 | 122 | 45 | 84 | 1970 | COc1cc(C(=O)N(CCCCC(=O)O)CCCc2ccc(C)o2)cc(OC)c1C1CC1 [Example 178, 5-{(4-cyclopropyl-3,5-dimethoxybenzoyl)[3-(5-methylfuran-2-yl)propyl]amino}pentanoic Acid] | 77
991 | 118 | 33 | 73 | 5430 | COc1cc(C(=O)N(CCCc2ccc(C)o2)CCCC(C)(O)C(=O)O)cc(OC)c1C (stereo not drawn) [Example 174, 5-{(3,5-dimethoxy-4-methylbenzoyl)[3-(5-methylfuran-2-yl)propyl]amino}-2-hydroxy-2-methylpentanoic Acid] | 65
3250 | 112 | 67 | 82 | 7850 | COc1cc(C(=O)N(CCCCC(=O)O)CCCc2ccccc2)cc(OC)c1F [Example 99, 5-[(4-fluoro-3,5-dimethoxybenzoyl)(3-phenylpropyl)amino]pentanoic Acid] | 56
1210 | 99 | 54 | 96 | 318 | COc1cc(OC)c(Cl)c(C(=O)N(CCCCC(=O)O)CCCc2ccccc2)c1 [Example 39, 5-[(2-chloro-3,5-dimethoxybenzoyl)(3-phenylpropyl)amino]pentanoic Acid] | 80
178 | 122 | 31 | 93 | 665 | COc1cc(C(=O)N(CCCCC(=O)O)CCCc2c(F)cccc2F)cc(OC)c1C [Example 147, 5-{[3-(2,6-difluorophenyl)propyl](3,5-dimethoxy-4-methylbenzoyl)amino}pentanoic Acid] | 86
